According to article PMC4153677, “Probing the Activity Modification Space of the Cysteine Peptidase Cathepsin K with Novel Allosteric Modifiers” (PLoS ONE, 2014):

Columns and labels:
Type in all cases: biochemical
[1] = molecular target: T1, Recombinant human cathepsin K (Homo sapiens, UniProt P43235); test: Thermal stability of cathepsin K at pH 7.4 in the presence of modifiers; settings: for stability: ln(sf), sf = ratio of half-lives in the presence and absence of modifier: 37 °C and pH 7.4
T1 construct: made in house
T1 sequence (P43235 115-329): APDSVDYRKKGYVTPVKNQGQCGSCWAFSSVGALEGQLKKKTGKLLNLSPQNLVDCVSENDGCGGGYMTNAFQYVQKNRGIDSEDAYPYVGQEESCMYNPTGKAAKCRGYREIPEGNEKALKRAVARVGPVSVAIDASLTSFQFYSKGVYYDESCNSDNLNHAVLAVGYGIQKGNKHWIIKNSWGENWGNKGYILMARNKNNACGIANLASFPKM
Method: Cathepsin K was incubated at 37°C in 50 mM Hepes buffer pH 7.40 containing 1 mM EDTA and 5 mM DTT in the presence or absence of each modifier. The final enzyme concentration was 0.2 µM and final compounds concentrations were 2 mM, except compound 2, which was used at a concentration of 1 mM. All experiments were performed in Eppendorf Protein LoBind Tubes to minimize the adsorption of proteins on tube walls. Aliquots were withdrawn from the reaction mixtures at regular time intervals and their residual activity measured using the substrate Z-FR↓AMC (5 µM final concentration). Inactivation curves had exponential profiles that were fitted with the mathematical model for one-phase exponential decay to determine the half-life of the enzyme in each reaction mixture.

[2] = molecular target: T1, Recombinant human cathepsin K; test: Azocasein degradation assays; settings: for remaining activity: pH 5.5, substrate azocasein 3 mg/ml, 0.1 µM cathepsin K, 30 min 37°C, pH 5.50, read-out: Residual activity; for remaining activity / Effect on azocasein degradation: compounds up to 2 mM (compound 2: 1 mM); for azocasein: fraction of residual enzyme activity: value of 1 equals the activity of unmodified enzyme, activity modification matrix
Excerpt: Figure 4 Effect of modifiers on the degradation of macromolecular substrates. (A) Effect of increasing concentrations of compounds 1 and 2 on the degradation of calf skin collagen. Molecular mass standards are given in kDa and positions of α, β and γ chains of intact collagen are marked by arrows. (B) Effect of modifiers on azocasein degradation. (C) Effect of glycosaminoglycans and clusterin on azocasein degradation. Two different concentrations of each glycosaminoglycan were used in the experiments (10 µg/ml and 200 µg/ml). Error bars in panels B and C represent the SEM of three experiments. All experiments were performed in 100 mM sodium acetate buffer pH 5.50 containing 1 mM EDTA and 5 mM DTT, as described in detail in the Materials and Methods section. Abbreviations: CPD – compound, CS – chondroitin sulfate, DS – dermatan sulfate, HP – heparin.
Azocasein (Sigma-Aldrich, USA) was dissolved in 100 mM sodium acetate buffer pH 5.50 containing 1 mM EDTA and 5 mM DTT at a concentration of 3 mg/ml. Samples were incubated with 0.1 µM cathepsin K for 30 min at 37°C in the presence of each compound. […] Reactions were stopped by addition of trichloroacetic acid (final concentration 5% v/v), centrifuged, clear supernatants mixed with 0.5 M NaOH and the concentrations of solubilized peptides determined by measuring the absorbance at 440 nm. All experiments were performed in triplicates and appropriate blanks were run to take into account the absorption of azocasein and compounds alone. IC 50 values were determined as described previously.

[3] = molecular target: T1, Recombinant human cathepsin K; test: Collagenolytic assays (calf skin collagen, SDS-PAGE); design: key to collagen: qualitative value: qualitative values of 1 and 0 were used to signify inhibition and lack thereof, respectively; qualitative values of 1 and 0 were used to signify inhibition and lack thereof, respectively; a value of -1 was used to describe the concentration-dependent roles of glycosaminoglycans; settings: for collagen: qualitative value: activity modification matrix
Method: The use of synthetic substrates is practical for the determination of the mechanisms of modification. […] Therefore, all modifiers were also tested with two macromolecular substrates, calf skin collagen and azocasein. The collagenolytic activity was tested quantitatively by following the fragmentation of the characteristic type I collagen pattern into smaller products on SDS-PAGE after incubation of the samples with cathepsin K in the presence and absence of modifiers.
Soluble calf skin collagen (Worthington Biochemical Corporation, USA) was diluted in 100 mM sodium acetate buffer pH 5.50 containing 1 mM EDTA and 5 mM DTT to a final concentration of 0.5 mg/ml. Experiments were started by addition of cathepsin K (final enzyme concentration 0.6 µM) to the reaction mixture containing collagen and increasing concentrations of modifier. All assays were performed at 28°C with shaking on an Eppendorf Thermomixer Comfort. Samples were incubated for 2 hours and the reactions then blocked by addition of E-64 to a final concentration of 1 µM. 10 µg of digested collagen were analyzed by SDS-PAGE on 8% polyacrylamide gels and protein bands visualized by Coomassie Brilliant Blue R-250 staining.

[4] = molecular target: T1, Recombinant human cathepsin K; test: Kinetic measurements, hydrolysis of the fluorogenic substrate Z-FR↓AMC (general modifier mechanism); design: key to α (coefficient, effect of modifier on the affinity for the substrate) / β (coefficient, effect of modifier on the catalytic rate): dimensionless coefficients multiplying KS (α) and kcat (β); settings: for Z-FRAMC: geometric mean of residual activities (vA): at 0.1×Km and 10×Km substrate, modifier 10×KA, calculated with Equation 1 from α and β of Table 3, unmodified enzyme = 1.00; for α (coefficient, effect of modifier on the affinity for the substrate) / Kd / Kinetic mechanism of modification / β (coefficient, effect of modifier on the catalytic rate): substrate Z-FR↓AMC; for α (coefficient, effect of modifier on the affinity for the substrate) / Kd / β (coefficient, effect of modifier on the catalytic rate): pH 5.50, 25°C, 0.5 nM enzyme; for Kd: read-out: K A (equilibrium dissociation constant of the EA complex); for Kinetic mechanism of modification: from combinations of α and β
Method: All modifiers were tested for their effect on the hydrolysis of the low molecular mass synthetic substrate Z-FR↓AMC. Since all progress curves were linear from the beginning of the reaction, initial velocities were calculated from the slopes by linear regression. […] The basic mechanism considered for the analysis of the interactions was the general modifier mechanism shown in Figure 2, in which the effect of modifier is determined by the values of the coefficients α and β that multiply the kinetic parameters K S, K A (α) and k cat (β). In the thermodynamic box embodied in Figure 2, the reciprocal of the coefficient α represents the allosteric coupling constant that characterizes energy linkage between the modifier and the substrate, while a […] represents the effect exerted by the modifier on catalysis. The specific velocity plot was used for the primary screening of the kinetic behavior of the modifiers (Equation 2), as it allows an immediate judgment of the type of interaction and to gather preliminary estimates of the coefficients α and β, as well as of the dissociation constant of the modifier. Refinement was then performed by fitting the rate Equation 1 to data.
Figure 3 Kinetic mechanisms of the identified modifiers. All compounds were characterized by a combination of specific velocity plots (upper panels) and titration curves recorded at fixed substrate concentrations (lower panels). All experiments were performed at 25±1°C in 100 mM sodium acetate buffer pH 5.50 containing 1 mM EDTA and 2.5 mM DTT using the fluorogenic substrate Z-FR↓AMC and at a final enzyme concentration of 0.5 nM.
All kinetic measurements were performed in 100 mM sodium acetate buffer pH 5.50 containing 1 mM EDTA and 2.5 mM dithiothreitol (DTT) in single-use acrylic cuvettes (1×1 cm) thermostatted at 25±1°C with magnetic stirring. The hydrolysis of Z-FR↓AMC was followed fluorometrically at λex 383 nm and λem 455 nm. All tested modifiers were analyzed spectroscopically to determine their absorption properties under the conditions used in the assays. When necessary, appropriate corrections were made to the calculated reaction rates to take into account the inner filter effect.
The effects of the modifiers on enzymatic activity were analyzed with the general modifier mechanism which describes the interaction between enzyme (E), substrate (S) and modifier (A), as shown in Figure 2. Assuming that binding of A to E and ES is at quasi-equilibrium and that steady-state conditions are established in the fluxes around ES and ESA (i.e. the catalytic steps), the reaction rate for the mechanism in Figure 2 is defined by Equation 1: [drawing 2] (1) where v 0 is the reaction rate in the absence of modifier, K A is the equilibrium dissociation constant of the EA complex, α and β are dimensionless coefficients and σ = [S]/K m, approximated to [S]/K s. To determine the mechanism of interaction, plot the kinetic data and calculate preliminary values of the interaction parameters, the specific velocity plot was used. For this purpose, Equation 1 is rewritten as:
The plot of v 0/v A versus σ/(1+σ) produces straight lines with intersection points at v 0/v A = 1, regardless of the interaction mechanism. The parameters α, β and K A are determined by replotting the extrapolated values of the straight lines at σ/(1+σ) = 0 (a) and σ/(1+σ) = 1 (b) versus 1/[A] in the form: [drawing 4] (3) [drawing 5] (4)

[5] = substrate calf skin collagen 0.5 mg/ml, 0.6 µM cathepsin K, 2 hours 28°C, pH 5.50, estimated

Structure (SMILES) | stability: ln(sf), sf = ratio of half-lives in the presence and absence of modifier [1] | remaining activity [2] | collagen: qualitative value [3] | IC50 [3, 5] | Z-FRAMC: geometric mean of residual activities (vA) [4] | α (coefficient, effect of modifier on the affinity for the substrate) [4] | Kd [4] | Effect on azocasein degradation [2] | azocasein: fraction of residual enzyme activity [2] | Kinetic mechanism of modification [4] | β (coefficient, effect of modifier on the catalytic rate) [4] | further results
O=C(Nc1ccc(C(=O)O)c(O)c1)c1ccccc1 [Compound 3, N-Benzoyl-p-aminosalicylic acid] | 0.26 | 86 ± 4% | 0 | n.i. | 0.42 | 1.7±0.5 | 110 ± 20 µM | – | – | – | – | –
O=C(O)c1ccccc1C(=O)Nc1cccc([N+](=O)[O-])c1 [Compound 7, 2-[(3-Nitrophenyl)carbamoyl]benzoic acid] | 0.47 | 104 ± 5% | 0 | n.i. | 0.48 | 0.19±0.03 | 290 ± 20 µM | ineffective | 1.01 | hyperbolic mixed inhibitors with uncompetitive character | 0.19±0.03 | α (coefficient, effect of modifier on the affinity for the substrate) ([4]; listed as compound 7): < 1; β (coefficient, effect of modifier on the catalytic rate) ([4]; listed as compound 7): < 1
Nc1cc(C(=O)O)ccc1NCC1CCCO1 (stereo not drawn) [Compound 1, 3-Amino-4-[(tetrahydro-2-furanylmethyl)amino] benzoic acid] | 0.74 | 74 ± 9% | 1 | – | 0.37 | – | 190 ± 20 µM | – | 0.74 | – | 0.55±0.25 | Increase of stability (half-life) of cathepsin K ([1]; pH 7.4, 37°C, versus enzyme only): about 2 fold; IC 50 relative to K A ([2]; azocasein IC50 versus K A with Z-FR↓AMC): about 4 fold; IC50 ([2]; azocasein degradation): 730 ± 190 µM; Effect on degradation of calf skin collagen ([3]; SDS-PAGE, increasing concentrations of modifier): concentration-dependent inhibitory effect; IC50 ([3]; degradation of calf skin collagen, read-out: IC 50 (estimated)): ~1000 µM; IC50 ([3]; substrate calf skin collagen 0.5 mg/ml, 0.6 µM cathepsin K, 2 hours 28°C, pH 5.50, estimated, read-out: IC 50): 1000 µM
COC(=O)CNC1CC(=O)N(c2ccc(OC)cc2)C1=O (stereo not drawn) [Compound 8, Methyl N-[1-(4-methoxyphenyl)-2,5-dioxopyrrolidin-3-yl]glycinate] | 0.02 | 101 ± 3% | 0 | n.i. | 0.60 | 0.31±0.06 | 1100 ± 200 µM | ineffective | 1.04 | hyperbolic mixed inhibitors with uncompetitive character | 0.31±0.06 | α (coefficient, effect of modifier on the affinity for the substrate) ([4]; listed as compound 8): < 1; β (coefficient, effect of modifier on the catalytic rate) ([4]; listed as compound 8): < 1
O=C(O)C(Cc1ccccc1-c1ccccc1)C(=O)O [Compound 4, (2-Biphenylylmethyl) malonic acid] | 0.41 | 90 ± 3% | 0 | n.i. | 0.70 | 5.6±1.2 | 100 ± 40 µM | – | – | hyperbolic mixed modifiers with a dual behavior as inhibitors or activators depending on substrate concentration | 1.5±0.3 | α (coefficient, effect of modifier on the affinity for the substrate) ([4]; listed as compound 4): > 1; β (coefficient, effect of modifier on the catalytic rate) ([4]; listed as compound 4): > 1
